Laboratory results: ChEMBL document CHEMBL1152872, “Discovery of N-{[1-(propylsulfonyl)-4-pyridin-2-ylpiperidin-4-yl]methyl}benzamides as novel, selective and potent GlyT1 inhibitors” (Bioorg Med Chem Lett, 2009)

How the values were obtained:
[1] = target: T1, Sodium- and chloride-dependent glycine transporter 1 (Homo sapiens, UniProt P48067); experiment: Inhibition of human glycine transporter 1
T1 sequence (P48067 whole entry): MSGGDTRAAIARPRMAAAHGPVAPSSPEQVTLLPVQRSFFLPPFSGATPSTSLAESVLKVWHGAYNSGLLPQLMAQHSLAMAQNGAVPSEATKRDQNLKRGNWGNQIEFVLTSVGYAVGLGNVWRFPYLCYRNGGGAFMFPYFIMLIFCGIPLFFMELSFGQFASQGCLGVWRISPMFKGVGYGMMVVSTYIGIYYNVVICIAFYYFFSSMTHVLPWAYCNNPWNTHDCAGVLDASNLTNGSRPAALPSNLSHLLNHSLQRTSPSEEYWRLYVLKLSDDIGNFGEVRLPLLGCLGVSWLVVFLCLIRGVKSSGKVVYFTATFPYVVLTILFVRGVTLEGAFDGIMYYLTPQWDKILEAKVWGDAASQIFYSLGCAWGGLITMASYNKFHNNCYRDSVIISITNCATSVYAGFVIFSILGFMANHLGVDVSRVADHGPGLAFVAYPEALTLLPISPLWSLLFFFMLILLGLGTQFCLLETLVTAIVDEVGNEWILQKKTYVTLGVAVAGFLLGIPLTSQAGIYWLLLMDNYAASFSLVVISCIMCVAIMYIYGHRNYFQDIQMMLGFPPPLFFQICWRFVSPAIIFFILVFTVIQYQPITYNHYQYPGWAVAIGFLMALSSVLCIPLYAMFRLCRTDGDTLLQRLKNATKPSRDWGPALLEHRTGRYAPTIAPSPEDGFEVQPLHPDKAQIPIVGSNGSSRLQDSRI

[2] = target: T2, Sodium- and chloride-dependent glycine transporter 2 (Homo sapiens, UniProt Q9Y345); experiment: Inhibition of glycine transporter 2
T2 sequence (Q9Y345 whole entry): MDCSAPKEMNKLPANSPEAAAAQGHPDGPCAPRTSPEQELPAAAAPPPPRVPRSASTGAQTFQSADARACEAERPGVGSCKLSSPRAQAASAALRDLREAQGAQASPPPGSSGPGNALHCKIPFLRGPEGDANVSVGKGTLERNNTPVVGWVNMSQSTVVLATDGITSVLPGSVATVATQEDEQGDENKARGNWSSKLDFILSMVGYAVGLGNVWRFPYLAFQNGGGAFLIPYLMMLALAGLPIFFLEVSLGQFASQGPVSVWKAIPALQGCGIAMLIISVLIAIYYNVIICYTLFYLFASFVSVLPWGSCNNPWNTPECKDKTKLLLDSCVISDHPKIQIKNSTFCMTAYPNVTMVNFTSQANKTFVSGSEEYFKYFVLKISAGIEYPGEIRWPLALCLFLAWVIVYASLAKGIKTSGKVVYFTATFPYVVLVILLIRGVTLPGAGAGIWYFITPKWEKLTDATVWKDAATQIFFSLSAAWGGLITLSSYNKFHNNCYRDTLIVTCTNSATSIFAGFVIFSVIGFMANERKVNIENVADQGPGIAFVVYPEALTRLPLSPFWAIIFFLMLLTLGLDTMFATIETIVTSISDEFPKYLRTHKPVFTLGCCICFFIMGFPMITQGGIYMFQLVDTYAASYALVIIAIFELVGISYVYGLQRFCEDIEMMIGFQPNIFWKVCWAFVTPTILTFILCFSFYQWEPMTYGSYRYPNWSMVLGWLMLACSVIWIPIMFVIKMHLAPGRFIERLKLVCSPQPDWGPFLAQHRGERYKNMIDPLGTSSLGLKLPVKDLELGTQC

[3] = target: T3, Sodium- and chloride-dependent taurine transporter (Homo sapiens, UniProt P31641); experiment: Inhibition of taurine transporter; type: single protein
T3 sequence (P31641 whole entry): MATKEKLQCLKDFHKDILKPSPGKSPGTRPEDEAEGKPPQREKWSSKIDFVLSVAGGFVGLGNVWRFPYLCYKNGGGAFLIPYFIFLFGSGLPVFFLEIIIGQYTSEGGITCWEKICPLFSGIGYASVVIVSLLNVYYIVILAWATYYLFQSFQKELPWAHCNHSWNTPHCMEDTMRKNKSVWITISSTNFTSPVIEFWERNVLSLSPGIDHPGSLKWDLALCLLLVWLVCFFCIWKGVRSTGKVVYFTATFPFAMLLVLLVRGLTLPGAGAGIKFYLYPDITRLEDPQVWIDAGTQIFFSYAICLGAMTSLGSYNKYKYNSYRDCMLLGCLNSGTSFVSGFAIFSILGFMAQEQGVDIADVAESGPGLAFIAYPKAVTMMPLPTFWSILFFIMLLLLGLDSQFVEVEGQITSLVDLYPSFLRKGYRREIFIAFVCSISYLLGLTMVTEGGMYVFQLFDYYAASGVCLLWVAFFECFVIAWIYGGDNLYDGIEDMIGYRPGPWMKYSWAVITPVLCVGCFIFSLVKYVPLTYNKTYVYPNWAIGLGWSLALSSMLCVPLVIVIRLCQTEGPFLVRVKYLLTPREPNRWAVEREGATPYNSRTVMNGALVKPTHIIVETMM

[4] = Solubility in water; type: physicochemical
[5] = target: T1, Sodium- and chloride-dependent glycine transporter 1; experiment: Inhibition of glycine transporter 1 by HTS assay

Row | SMILES | IC50 [1] | IC50 [2] | IC50 [3] | solubility [4] | IC50 [5]
1 | CCCS(=O)(=O)N1CCC(c2ccccn2)([C@H](C)NC(=O)c2ccccc2OC(F)(F)F)CC1 | 17.7 nM | > 30 µM | > 30 µM | – | –
2 | CCCS(=O)(=O)N1CCC(c2ccccn2)([C@H](C)NC(=O)c2ccc(Cl)cc2Cl)CC1 | 3 nM | > 30 µM | > 30 µM | – | –
3 | CCCS(=O)(=O)N1CCC(CNC(=O)c2ccccc2C)(C2CCCCN2C)CC1 (stereo unspecified) | 148 nM | – | – | – | –
4 | CCCS(=O)(=O)N1CCC(CNC(=O)c2ccccc2OC(F)(F)F)(C2CCCCN2C)CC1 (stereo unspecified) | 21.2 nM | – | – | – | –
5 | CCCS(=O)(=O)N1CCC(c2ccccn2)([C@@H](C)NC(=O)c2ccccc2OC(F)(F)F)CC1 | 2590 nM | – | – | – | –
6 | CCCS(=O)(=O)N1CCC(c2ccccn2)([C@@H](C)NC(=O)c2ccc(Cl)cc2Cl)CC1 | 661 nM | – | – | – | –
7 | CCCS(=O)(=O)N1CCC(c2ccccn2)([C@@H](C)NC(=O)c2cc(F)cc(F)c2Cl)CC1 | 576 nM | – | – | – | –
8 | CCCS(=O)(=O)N1CCC(CNC(=O)c2ccccc2Cl)(C2CCCCN2C)CC1 (stereo unspecified) | 58.9 nM | – | – | – | –
9 | CCCS(=O)(=O)N1CCC(CNC(=O)c2cc(F)cc(F)c2Cl)(C2CCCCN2C)CC1 (stereo unspecified) | 43.1 nM | – | – | – | –
10 | CCCS(=O)(=O)N1CCC(CNC(=O)c2ccccc2)(c2cccc(C)n2)CC1 | 54.7 nM | > 30 µM | > 30 µM | – | –
11 | CCCS(=O)(=O)N1CCC(CNC(=O)c2c(Cl)ccc(Cl)c2F)(c2ccccn2)CC1.Cl | – | – | – | 570 µg/mL | –
12 | CCCS(=O)(=O)N1CCC(c2ccccc2)([C@H](C)NC(=O)c2c(N)cccc2Cl)CC1 | – | – | – | – | 2.6 nM
13 | CCCS(=O)(=O)N1CCC(CNC(=O)c2ccccc2F)(c2ccccn2)CC1 | 49.4 nM | > 30 µM | > 30 µM | – | –
14 | CCCS(=O)(=O)N1CCC(CNC(=O)c2c(Cl)cccc2Cl)(c2ccccn2)CC1 | 6.6 nM | > 30 µM | > 30 µM | – | –
15 | CCCS(=O)(=O)N1CCC(CNC(=O)c2c(N)cccc2Cl)(c2ccccn2)CC1 | 6.9 nM | > 30 µM | > 30 µM | – | –
16 | CCCS(=O)(=O)N1CCC(CNC(=O)c2ccccc2OC)(c2ccccc2)CC1 | – | – | – | – | 130 nM
17 | CCCS(=O)(=O)N1CCC(CNC(=O)c2ccccc2Cl)(c2ccccn2)CC1 | 11.9 nM | > 30 µM | > 30 µM | – | –
18 | CCCS(=O)(=O)N1CCC(CNC(=O)c2c(F)ccc(F)c2Cl)(c2ccccn2)CC1 | 5.7 nM | > 30 µM | > 30 µM | – | –
19 | CCCS(=O)(=O)N1CCC(CNC(=O)c2ccc(Cl)cc2Cl)(C2CCCCN2C)CC1 (stereo unspecified) | 9.5 nM | – | – | – | –
20 | CCCS(=O)(=O)N1CCC(CNC(=O)c2ccc(Cl)cc2)(c2ccccn2)CC1 | 103 nM | > 30 µM | > 30 µM | – | –
21 | CCCS(=O)(=O)N1CCC(CNC(=O)c2cccc(Cl)c2)(c2ccccn2)CC1 | 517 nM | > 30 µM | > 30 µM | – | –
22 | CCCS(=O)(=O)N1CCC(CNC(=O)c2cccc(C)c2)(c2ccccn2)CC1 | 833 nM | > 30 µM | > 30 µM | – | –
23 | CCCS(=O)(=O)N1CCC(CNC(=O)c2ccccc2)(c2cccc(OC)n2)CC1 | 48.3 nM | > 30 µM | > 30 µM | – | –
24 | CCCS(=O)(=O)N1CCC(CNC(=O)c2ccccc2C(F)(F)F)(c2ccccn2)CC1 | 31.3 nM | > 30 µM | > 30 µM | – | –
25 | CCCS(=O)(=O)N1CCC(CNC(=O)c2ccccc2OC(F)(F)F)(c2ccccn2)CC1 | 19.4 nM | > 30 µM | > 30 µM | – | –
26 | CCCS(=O)(=O)N1CCC(c2ccccn2)([C@H](C)NC(=O)c2cc(F)cc(F)c2Cl)CC1 | 4 nM | > 30 µM | > 30 µM | – | –
27 | CCCS(=O)(=O)N1CCC(CNC(=O)c2ccccc2)(c2cc(C)ccn2)CC1 | 129 nM | > 30 µM | > 30 µM | – | –
28 | CCCS(=O)(=O)N1CCC(CNC(=O)c2ccccc2)(C2CCCCN2C)CC1 (stereo unspecified) | 3310 nM | – | – | – | –
29 | CCCS(=O)(=O)N1CCC(CNC(=O)c2ccccc2)(c2ccccn2)CC1 | 107 nM | > 30 µM | > 30 µM | – | –
30 | CCCS(=O)(=O)N1CCC(CNC(=O)c2ccccc2C)(c2ccccn2)CC1 | 19.5 nM | > 30 µM | > 30 µM | – | –

Other lines, results leading:

Row | IC50 [1] | IC50 [2] | IC50 [3] | solubility [4] | IC50 [5] | SMILES
31 | 69.3 nM | – | – | – | – | CCCS(=O)(=O)N1CCC(CNC(=O)c2ccc(Cl)cc2Cl)(c2cccnc2)CC1
32 | 79.3 nM | – | – | – | – | CCCS(=O)(=O)N1CCC(CNC(=O)c2ccc(Cl)cc2Cl)(c2ccncc2)CC1
33 | 7.4 nM | > 30 µM | > 30 µM | – | – | CCCS(=O)(=O)N1CCC(CNC(=O)c2ccc(Cl)cc2Cl)(c2cccc(OC)n2)CC1
34 | > 5000 nM | – | – | – | – | CCCS(=O)(=O)N1CCC(CNC(=O)c2ccccc2)(c2cccc(N3CCOCC3)n2)CC1
35 | 482 nM | – | – | – | – | CCCS(=O)(=O)N1CCC(CNC(=O)c2ccccc2Cl)(c2cccc(N3CCOCC3)n2)CC1
36 | 412 nM | – | – | – | – | CCCS(=O)(=O)N1CCC(CNC(=O)c2ccc(Cl)cc2Cl)(c2cccc(N3CCOCC3)n2)CC1
37 | 2.5 nM | > 30 µM | > 30 µM | – | – | CCCS(=O)(=O)N1CCC(CNC(=O)c2ccc(Cl)cc2Cl)(c2cccc(C)n2)CC1
38 | 131 nM | > 30 µM | > 30 µM | – | – | CCCS(=O)(=O)N1CCC(CNC(=O)c2ccc(Cl)c(Cl)c2)(c2ccccn2)CC1
39 | 6.9 nM | > 30 µM | > 30 µM | – | – | CCCS(=O)(=O)N1CCC(CNC(=O)c2ccccc2Cl)(c2cccc(OC)n2)CC1
40 | 38.3 nM | > 30 µM | > 30 µM | – | – | CCCS(=O)(=O)N1CCC(CNC(=O)c2ccccc2Cl)(c2cc(C)ccn2)CC1
41 | 3.5 nM | > 30 µM | > 30 µM | – | – | CCCS(=O)(=O)N1CCC(CNC(=O)c2ccc(Cl)cc2Cl)(c2cc(C)ccn2)CC1
42 | – | – | – | 850 µg/mL | – | CCCS(=O)(=O)N1CCC(CNC(=O)c2ccc(Cl)cc2Cl)(c2ccccn2)CC1.Cl
43 | 3 nM | > 30 µM | > 30 µM | – | – | CCCS(=O)(=O)N1CCC(CNC(=O)c2ccccc2Cl)(c2cccc(C)n2)CC1
44 | 4.4 nM | > 30 µM | > 30 µM | – | – | CCCS(=O)(=O)N1CCC(CNC(=O)c2ccc(Cl)cc2Cl)(c2ccccn2)CC1
